Marks after values point to notes of the source that are not given here.
Legend:
[1] = Anticholinergic activity in vivo by intravenous administration
[2] = biological target: T1, human M3 muscarinic receptor (Homo sapiens, UniProt P20309); experiment: V0162 receptor binding in vitro, CHO cells transfected with human M3, 4-DAMP; details: M3 (h)
T1 construct: expressed in transfected cells; host or cells: CHO cells, stably transfected
From the text: (§1) The purpose of this study is to determine an affinity constant for the compound with respect to the three classes of human muscarinic receptors in vitro. The model chosen is the CHO cell stably transfected with cDNAs coding for each of the three human muscarinic receptors. […] Binding with respect to the receptors is defined as follows: the difference between overall binding and non-specific binding determined in the presence of excess cold ligand. The results are expressed as a percentage of the optimal binding obtained with the model ligand (100%). […] The inhibition constants (Ki) were calculated by means of the Cheng Prusoff equation (Ki=IC50/(1+L/KD)); where L is the radioligand concentration and KD the affinity of the radioligand for the receptor.

[3] = biological target: T2, human M1 muscarinic receptor (Homo sapiens, UniProt P11229); experiment: V0162 receptor binding in vitro, CHO cells transfected with human M1, tritiated pirenzepine; details: M1(h)
T2 sequence (P11229 1-460): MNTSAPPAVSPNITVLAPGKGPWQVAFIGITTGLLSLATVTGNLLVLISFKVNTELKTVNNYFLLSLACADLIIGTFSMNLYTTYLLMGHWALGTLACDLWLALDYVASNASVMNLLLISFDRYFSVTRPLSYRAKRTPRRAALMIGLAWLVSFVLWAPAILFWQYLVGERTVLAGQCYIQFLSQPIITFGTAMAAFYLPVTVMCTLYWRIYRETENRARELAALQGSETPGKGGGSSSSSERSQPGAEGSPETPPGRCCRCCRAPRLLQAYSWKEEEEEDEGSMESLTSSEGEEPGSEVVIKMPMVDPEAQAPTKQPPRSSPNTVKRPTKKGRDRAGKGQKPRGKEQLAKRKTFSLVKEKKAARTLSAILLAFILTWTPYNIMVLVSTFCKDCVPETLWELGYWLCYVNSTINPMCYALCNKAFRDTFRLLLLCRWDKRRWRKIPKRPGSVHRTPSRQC
From the text: as §1

[4] = test system: pilocarpine-induced sialorrhea in the rat; experiment: Pilocarpine-induced sialorrhea, inhibition of salivary secretion after p.o. administration; assay type: in vivo
Protocol: For the purpose of evaluating anticholinergic activity in the validated model of pilocarpine-induced sialorrhea in the rat, groups of animals were fasted and the next day the products were administered orally 90 minutes before intra-peritoneal injection of pilocarpine (0.5 mg.kg^-1). The compounds tested were administered in doses of 2.5, 5 and 10 mg.kg^-1. […] The animals were anaesthetized and then the salivary secretion was collected for 60 minutes, every ten minutes. The samples were then dried and weighed.

[5] = test system: salivation; details: preclinical animal studies; cited from earlier work
[6] = test system: M3 muscarinic receptors versus M2 muscarinic receptors; details: cited from earlier work
[7] = test system: increase in intravesical pressure induced by bethanechol; experiment: Intravesical pressure (cystomanometry) after bethanechol; assay type: in vivo; details: compared to oxybutyrine
Protocol: The objective of this study was to measure intravesical pressure and salivation, in the animal, for the purpose of testing the uroselectivity of the anti-muscarinics, when they are administered orally and vaginally. In order to evaluate intravesical pressure, the bladders of the animals were catheterized in order to make possible recording (cystomanometry: continuous recording of the vesical pressure). The products to be tested were administered either per os at a dose of 5 mg.Kg^-1 or by local application of a suspension of […] at 0.4% in a vehicle with a base of cyclodextrin and arginine. The jugular vein was also cannulated in order to administer a muscarinic agonist: bethanechol (200 μg/kg, iv). At each administration of bethanechol, the variation of vesical pressure (ΔPV, mmHg) and the quantity of saliva (mg) were evaluated and quantified. The positive control was made up of a group of animals treated with oxybutyrine (Ditropan®; 10, 100 and 1000 μg/kg, iv).

[8] = Transmucosal passage: repeated nasal administration of V0162 suspension, circulating level and tolerance; assay type: in vivo, rabbit; details: for Level of V0162: rabbit plasma, nasal 0.4% suspension twice per day
Protocol: 48 rabbits were treated nasally daily for 28 days with a suspension titrated at 0.4% mass/volume. […] Each group was made up of males and females equally. Nasal administration of the suspension was carried out twice per day for 28 days. Plasma samples were taken on D1, D2, D7, D28, D35. The samples were analyzed by an LC/MS/MS method validated by assay of V0162.

[9] = test system: explants taken from the guinea pig (contractions induced by acetylcholine); experiment: Anticholinergic effect ex vivo, contractions induced by acetylcholine in explants; details: for Response to Acetylcholine Max. Response (%): test curve, mean ± sem, n = 6
Protocol: The purpose of these experiments was to confirm the anticholinergic activity of […] on a living organ. In order to do so, explants taken from the guinea pig were kept alive. The morphology of the preparations was homogeneous from batch to batch. Each explant was placed in a survival chamber and immersed in a physiological solution of composition (mM): NaCl (118); KCl (4.7); […] CaCl2 (2.5); […] NaHCO3 (25); glucose (11), at a temperature of 37° C. and with a pH of 7.4. Before the test, the following agents were dispersed in the survival buffer in order to block non-specific responses to acetylcholine: […] (10^-6 M) to block β2-adrenergic responses; cimetidine (10^-5 M) to block type 2 histaminergic responses; methysergide (10^-6 M) to block serotoninergic responses and indomethacine (3×10^-6 M) to prevent the appearance of muscle tonus due to a release of prostaglandins by the preparation itself. At the time of acquisition, the tissues were connected to […] in order to continuously record the variations in tension. After 60 minutes of calibration of the preparations, the tissues were exposed to variable concentrations of […]. The contractions induced by acetylcholine as dose responses were carried out in order to determine the response of the preparation to the stimulation in the absence of the putative inhibitor.

[10] = p.o. 5 mg·kg^−1, comparison of racemic mixture and enantiomers (Table 4)
[11] = p.o. 2.5 mg·kg^−1, 90 min before pilocarpine
[12] = p.o. 10 mg·kg^−1, 90 min before pilocarpine

T1 sequence (P20309 whole entry): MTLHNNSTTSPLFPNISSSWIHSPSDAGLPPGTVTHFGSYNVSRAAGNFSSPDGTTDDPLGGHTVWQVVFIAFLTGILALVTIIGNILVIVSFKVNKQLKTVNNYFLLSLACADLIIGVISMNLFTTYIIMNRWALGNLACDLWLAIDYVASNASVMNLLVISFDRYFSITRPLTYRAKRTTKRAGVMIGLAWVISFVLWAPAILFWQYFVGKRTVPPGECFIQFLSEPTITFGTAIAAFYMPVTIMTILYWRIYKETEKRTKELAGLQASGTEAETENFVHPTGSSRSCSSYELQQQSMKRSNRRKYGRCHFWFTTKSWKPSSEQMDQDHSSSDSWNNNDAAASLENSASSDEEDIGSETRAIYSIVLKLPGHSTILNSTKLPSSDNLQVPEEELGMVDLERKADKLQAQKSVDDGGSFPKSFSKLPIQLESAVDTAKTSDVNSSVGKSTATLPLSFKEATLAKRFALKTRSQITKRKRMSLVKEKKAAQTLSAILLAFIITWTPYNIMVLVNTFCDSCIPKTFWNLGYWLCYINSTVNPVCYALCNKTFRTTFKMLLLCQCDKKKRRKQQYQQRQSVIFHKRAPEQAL

c1ccc2c(c1)Sc1ccccc1N2C[C@@H]1CN2CCC1CC2 [10-[(3S)-1-azabicyclo[2.2.2]oct-3-ylmethyl]-10H-phenothiazine, reference compound]
Anticholinergic activity in vivo [1]: does not demonstrate clear activity
nH (Hill coefficient) [2]: 1.0
nH (Hill coefficient) [3]: 1.1
Inhibition (%) [4, 10]: −4%

CN1[C@@H]2CC[C@H]1C[C@@H](OC(=O)C(CO)c1ccccc1)C2 (some centres unmarked) [Atropine, reference compound]
Inhibition (%) ([4]; 1 mg·kg^−1, positive control): 98* %

c1ccc2c(c1)Sc1ccccc1N2CC1CN2CCC1CC2 (racemic) [10-[(3R,3S)-1-azabicyclo[2.2.2]oct-3-ylmethyl]-10H-phenothiazine, reference compound]
nH (Hill coefficient) [2]: 1.2
nH (Hill coefficient) [3]: 0.8
Inhibition (%) [4, 10]: 73* %

Cc1ccc(O)c([C@H](CCN(C(C)C)C(C)C)c2ccccc2)c1 [tolterodine]
Effect on salivation [5]: reduces salivation less
Selectivity between M3 and M2 receptor [6]: more specific for the M2 receptor than for the M3 receptor

c1ccc2c(c1)Sc1ccccc1N2C[C@H]1CN2CCC1CC2 [V0162, 10-[(3R)-1-azabicyclo[2.2.2]oct-3-ylmethyl]-10H-phenothiazine]
Anticholinergic activity in vivo [1]: anticholinergic by intravenous administration
Increase in intravesical pressure induced by bethanecol ([7]; local application of 0.4% suspension, bethanechol 200 μg/kg iv): significantly reduces the increase in intravesical pressure
Increase in intravesical pressure induced by bethanecol ([7]; per os 5 mg.Kg^−1, bethanechol 200 μg/kg iv): significantly reduces the increase in intravesical pressure
Level of V0162 ([8]; Day 1/4 hours after administration): 0.88 ng/mL
Level of V0162 ([8]; Day 1/before administration): BLQ
Level of V0162 ([8]; Day 2/before administration): 0.22 ng/mL
Level of V0162 ([8]; Day 7/before administration): 0.41 ng/mL
Level of V0162 ([8]; Day 28/4 hours after administration): 1.35 ng/mL
Level of V0162 ([8]; Day 28/24 hours after administration): 0.23 ng/mL
Level of V0162 ([8]; Day 35/before administration): BLQ
Toxic effects (histological plane, respiratory rhythm, heart rate, behaviour) ([8]; rabbit, in vivo): do not lead to toxic effects
Effects on the nasal mucosa ([8]; rabbit, nasal 0.4% suspension twice per day for 28 days): does not induce deleterious effects on the nasal mucosa
Circulating level ([8]; rabbit, nasal administration of a suspension): ~4 nM
Response to Acetylcholine Max. Response (%) ([9]; V0162 30 nM): 98 ± 1%
Response to Acetylcholine Max. Response (%) ([9]; V0162 100 nM): 98 ± 1%
Response to Acetylcholine Max. Response (%) ([9]; V0162 300 nM): 98 ± 1%
Mode of action towards acetylcholine ([9]; ex vivo model): behaves like an antagonistic competitor of acetylcholine
Inhibition (%) [4, 11]: 29%
Secretion [4, 11]: 735.6 mg
Secretion ([4]; p.o. 5 mg·kg^−1, 90 min before pilocarpine): 338.9 mg
Inhibition (%) ([4]; p.o. 5 mg·kg^−1, 90 min before pilocarpine (Table 3)): 67* %
Inhibition (%) [4, 10]: 77* %
Inhibition (%) [4, 12]: 95* %
Secretion [4, 12]: 45.1 mg

CCN(CC)CC#CCOC(=O)C(O)(c1ccccc1)C1CCCCC1 (centres unmarked) [oxybutynine]
Effect on salivation [5]: reduce salivation

NC(=O)C(c1ccccc1)(c1ccccc1)[C@@H]1CCN(CCc2ccc3c(c2)CCO3)C1 [darifenacine]
Effect on salivation [5]: reduce salivation
Affinity for M3 muscarinic receptors higher than for M2 muscarinic receptors [6]: 7 times
Selectivity between M3 and M2 receptor [6]: more selective with respect to the M3 receptor than with respect to the M2

— patent US8143245B2 (Pierre Fabre Medicament, priority 2006, dated 2012)
